Measurements reported in patent US20200261398A1, “METHOD FOR FIRST-LINE TREATMENT OF ROSACEA” (Sol-Gel Technologies Ltd., priority 2019, published 2020).

Tests used:
[1] = system: patients afflicted with papulopustular rosacea; assay: Cutaneous Safety Assessment (dryness, scaling) and Local Tolerability Assessment (itching, burning/stinging), 12-week study of E-BPO 5% cream; type: in vivo, human; details: studies described herein
Description: Safety was assessed at all visits, and will include monitoring of local adverse experiences, Investigator Cutaneous Safety Assessment rating of dryness and scaling and Local Tolerability Assessment rating of itching and burning/stinging on a scale ranging from 0 (None) to 3 (Severe); patients complete a Patient Reported Outcomes (PRO) questionnaire at Visit 2, 3, 4, 5 and 6 and Rosacea Quality of Life Questionnaire (RosaQoL) at Baseline and Visit 6 or at early termination. Standardized photography of facial rosacea at Visit 2, 3, 4, 5 and 6 was performed at select site(s).
In addition to IGA, at each visit, the following safety measures were recorded: monitoring for any AE (adverse effects) including local and systemic; investigator Cutaneous Safety Assessment rating of erythema, dryness and scaling and Local Tolerability Assessments rating of itching and burning/stinging on a scale ranging from 0 (None) to 3 (Severe).
(§1) The first application of the test product was applied at the investigational site at the end of the Baseline visit (Day 0) under the supervision and instruction of the designated investigational site staff. […] The evaluator also assessed local application site irritation (dryness, scaling, pruritus, stinging and burning) at Baseline and Weeks 2, 4, 8 and 12 (end of study). […]

[2] = system: patients afflicted with papulopustular rosacea; assay: Investigator Global Assessment (IGA) success, 12-week vehicle-controlled study of E-BPO 5% cream; type: in vivo, human
Description: (§2) A multi-center, double-blind, randomized, vehicle-controlled, dose-range study of encapsulated 5% benzoyl peroxide (E-BPO) Cream and vehicle cream was performed to assess the efficacy and safety of E-BPO compared to vehicle. Study duration was 12 weeks and included approximately 350 male and female patients afflicted with papulopustular rosacea. Patients were at least 18 years of age, and met the inclusion/exclusion criteria described herein.
Patients were randomized in a 2:1 ratio to the study product or vehicle treatment group, respectively. […]
Patients were admitted into the study after meeting all inclusion/exclusion criteria, including a clinical diagnosis of rosacea and after written informed consent has been obtained. […] At each visit, a 5-point IGA scale of rosacea; rosacea erythema, and telangiectasia; and inflammatory (papules, pustules) lesion counts were performed and recorded.
as §1

[3] = system: patients afflicted with papulopustular rosacea; assay: Inflammatory lesion (papules, pustules) count, 12-week vehicle-controlled study of E-BPO 5% cream; type: in vivo, human
Description: as §2
Patients were randomized in a 2:1 ratio to the study product or vehicle treatment group, respectively. Patients applied the study product once daily for 12 weeks on the face (chin, left cheek, right cheek, nose, left forehead and right forehead) in a thin layer to provide even distribution, and avoid the eyes, lips, inside the nose, mouth and all mucous membranes.
Patients were admitted into the study after meeting all inclusion/exclusion criteria, including a clinical diagnosis of rosacea and after written informed consent has been obtained. Subjects with severe rosacea who are appropriate for systemic treatment need to be counseled regarding their treatment options by the Principal Investigator. At each visit, a 5-point IGA scale of rosacea; rosacea erythema, and telangiectasia; and inflammatory (papules, pustules) lesion counts were performed and recorded.
The first application of the test product was applied at the investigational site at the end of the Baseline visit (Day 0) under the supervision and instruction of the designated investigational site staff. The investigator performed the Investigator Global Assessment (IGA) and inflammatory lesion (papules and pustules) counts at Screening, Baseline, and Weeks 4, 8, and 12 (end of study) and erythema and telangiectasia assessments at Baseline, and Weeks 4, 8, and 12 (end of study). The evaluator also assessed local application site irritation (dryness, scaling, pruritus, stinging and burning) at Baseline and Weeks 2, 4, 8 and 12 (end of study). At selected investigational site(s), standardized photography of facial rosacea also was performed at Baseline and Week 8 and 12 (end of study).
The absolute change (primary measure of success) and percent change (secondary measure of success) from baseline of inflammatory lesions was derived for each patient at Weeks 2, 4, 8 and 12. The IGA was recorded for each patient at Baseline, Weeks 2, 4, 8 and 12. Weeks 2, 4, 8 and 12 with a patient were considered a success for those visits if the IGA was at least 2 grades less than baseline and are Clear or Almost Clear. Data from two sets of experiments—Drug 01+Vehicle 01 and Drug 02+Vehicle 02—are included herewith for each measurement
The proportions of subjects with a secondary measure of success (defined as change in the mean inflammatory lesion count from Baseline to Weeks 2, 4, 8 and 12) are shown in Tables 2A, 2B, 3A and 3B, and FIGS. 2 and 3.

rosacea = details: BPO as the sole active agent (Gul 2008); cited from earlier work
[4] = after at least 12 weeks of treatment

With O=C(OOC(=O)c1ccccc1)c1ccccc1 [BPO, Benzoyl peroxide] the “percentage of patients reporting no subcutaneous reactions compared with vehicle” value [1] was “comparable, and for some conditions, surprisingly, higher”, the “success in IGA” value ([2]; after 2 weeks of BPO-treatment) was “about 10%” and the “success in IGA” value ([2]; after only 4 weeks of treatment) was “about 25%”. For the same compound, the “decrease in inflammatory lesions” value [3, 4] was “over 69%”, the “decrease in inflammatory lesions relative to effect of vehicle cream” value [3, 4] was “more than 1.5 ×” and the “decrease in inflammatory lesions, on average” value ([3]; after only 2 weeks of treatment) was “about 40%”. For the same compound, the “decrease in inflammatory lesions” value ([3]; in 4 weeks) was “over 58%”, the “decrease in inflammatory lesions” value ([3]; in 8 weeks) was “about 70%” and the response of lesions (rosacea) was “unresponsive”.
